Laboratory results from US12551573B2, “Compositions and methods for the targeting of PCSK9” (Scribe Therapeutics Inc., priority 2022, dated 2026).

Key:
mouse PCSK9 locus = assay: Intracellular PCSK9 staining by flow cytometry in Hepa1-6 cells lipofected with mRNA and gRNA; assay type: cell-based
Method: Seeded Hepa1-6 cells treated with the NATE™ inhibitor were lipofected with 300 ng of mRNA encoding dXR1 or LTRP1-ZIM3 (Table 12) and 150 ng of a PCSK9-targeting gRNA (Table 14). Seven different gRNAs spanning the promoter region of the mouse PCSK9 locus were tested, in addition to a non-targeting sequence complementary to the human PCSK9 gene (Table 14). Cells were harvested at 6, 13, and 25 days after transfection to measure intracellular levels of the PCSK9 protein using an intracellular flow cytometry staining protocol. Briefly, cells were fixed using 4% paraformaldehyde in PBS, permeabilized, and stained using a mouse anti-PCSK9 primary antibody (R&D Systems®), followed by a fluorescent goat anti-mouse IgG secondary antibody (Thermo Fisher®). […] Cell populations were gated using the non-targeting gRNA as a negative control.
Seeded Hepa1-6 cells treated with the NATE™ inhibitor were lipofected with 300 ng of mRNA encoding LTRP1-ZIM3, LTRP5-ZIM3, catalytically-active CasX 491, or dCas9-ZNF10-DNMT3A/3L, and 150 ng of PCSK9-targeting gRNA (Table 14). Intracellular levels of PCSK9 protein were measured at 7, 14, 21, 36, and 71 days post-transfection using an intracellular staining protocol as described earlier for experiment #1.
Transfection of mRNA and gRNA into Hepa1-6 cells and intracellular PCSK9 staining were performed as described in Example 2. Briefly, each well of seeded Hepa1-6 cells was transfected with 300 ng of mRNA encoding LTRP5-ZIM3 or LTRP5-ADD-ZIM3 and 150 ng of PCSK9-targeting gRNA with spacer 27.88 or 27.94. Intracellular levels of PCSK9 protein were measured at various timepoints, up to day 53 post-transfection using an intracellular staining protocol as described earlier in Example 2. A non-targeting gRNA was used as an experimental control.

human PCSK9 locus = assay: Secreted PCSK9 by ELISA (normalized to total cell count) in Huh7 cells transfected with mRNA and gRNA; assay type: cell-based; conditions: for Secreted PCSK9 / Percent reduction in PCSK9 secretion / Average percent reduction in PCSK9 secretion: Huh7 cells, 6 days post-transfection; for Secreted PCSK9: normalized to total cell count; for Percent reduction in PCSK9 secretion: relative to non-targeting gRNA control; for Average percent reduction in PCSK9 secretion: averaged from the two doses
Method: To assess PCSK9 secretion, seeded Huh7 cells were transfected with mRNA encoding a catalytically-active CasX 676, dXR1, or LTRP5-ADD-ZIM3 and a gRNA with scaffold 316 and spacer targeting either the B2M or PCSK9 locus. Media supernatant was harvested at 6, 18, 36, and 87 days post-transfection to assess level of PCSK9 secretion by ELISA. Levels of PCSK9 secretion were normalized to total cell count. As an additional control, PCSK9 secretion was also measured in the media supernatant harvested from wells containing untreated, naïve cells.
The following three human hepatocyte cancer cell lines were used in this experiment: HepG2 cells, Hep3B cells, and Huh7 cells. ˜15,000 cells of each cell line were seeded per well; the next day, seeded cells were transfected with mRNA encoding a catalytically-active CasX 676, dXR1, or LTRP5-ADD-ZIM3 and a gRNA with scaffold 316 and spacer targeting either the B2M or PCSK9 locus (see Table 23 for specific spacers and sequences). Media supernatant was harvested at 4 days post-transfection to assess level of PCSK9 secretion by ELISA, and levels of PCSK9 secretion were normalized to total cell count and illustrated in FIGS. 11A-11C. Culturing of treated Huh7 cells continued, and media supernatant was harvested at 14 and 27 days post-transfection for measuring PCSK9 secretion by ELISA. As an additional experimental control, PCSK9 secretion was also measured in the media supernatant harvested from wells containing untreated, naïve cells.
To assess PCSK9 secretion, seeded Huh7 cells were co-transfected with mRNA encoding for LTRP5-ADD-ZIM3 and a gRNA with scaffold 316 and spacer targeting the PCSK9 locus using Lipofectamine™ 3000. Two doses of total RNA input at a 2:1 mass ratio of mRNA to gRNA were used for screening: 50 ng mRNA: 25 ng gRNA and 25 ng mRNA: 12.5 ng gRNA. Media supernatant was harvested at 6 days post-transfection to assess level of PCSK9 secretion by ELISA (Table 74). Levels of PCSK9 secretion were normalized to total cell count. As an additional control, PCSK9 secretion was also measured in the media supernatant harvested from cells transfected with mRNA encoding for mScarlet.

[1] = 25 ng mRNA:12.5 ng gRNA, paired with LTRP5-ADD-ZIM3 mRNA
[2] = 50 ng mRNA:25 ng gRNA, paired with LTRP5-ADD-ZIM3 mRNA
[3] = paired with LTRP5-ADD-ZIM3 mRNA

Row | Substance | knockdown of intracellular PCSK9 (mouse PCSK9 locus; 300 ng LTRP1-ZIM3 mRNA + 150 ng gRNA (scaffold 174, v1), day 6) [%] | permanence of PCSK9 silencing by spacer (mouse PCSK9 locus; paired with LTRP1-ZIM3 mRNA, through day 25) | durability of PCSK9 repression by spacer (mouse PCSK9 locus; paired with LTRP5-ZIM3 or LTRP5-ADD-ZIM3, day 53) | durable PCSK9 knockdown (mouse PCSK9 locus; third-party-produced mRNA paired with gRNAs containing various spacers, up to day 71) | Secreted PCSK9 (human PCSK9 locus; [1]) [ng/mL] | Percent reduction in PCSK9 secretion (human PCSK9 locus; [1]) [%] | Secreted PCSK9 (human PCSK9 locus; [2]) [ng/mL] | Percent reduction in PCSK9 secretion (human PCSK9 locus; [2]) [%] | repression of PCSK9 secretion by spacer (human PCSK9 locus; Huh7, paired with LTRP5-ADD-ZIM3 mRNA, scaffold 316, days 4, 14, 27) | Average percent reduction in PCSK9 secretion (human PCSK9 locus; [3]) [%] | average reduction in secreted PCSK9 levels (human PCSK9 locus; Huh7, LTRP5-ADD-ZIM3 mRNA + gRNA scaffold 316 (v1), 6 days, averaged from two doses (50 ng mRNA:25 ng gRNA, 25 ng:12.5 ng), relative to non-targeting gRNA) [%]
1 | CCCCUCUUAAUCCCCACUCC (spacer within chemically modified full gRNA with 2'-OMe and phosphorothioate ends, further chemistry not given here) [spacer 27.94, mouse PCSK9] | > 80 | strongest permanence in silencing PCSK9 | more durable repression than use of spacer 27.88 by day 53 | highest level of PCSK9 repression |  |  |  |  |  |  | 
2 | AGGGAUUUAUACUACAAAGA (listed as RNA, chemistry not given here) [spacer 6.138, Promoter] |  |  |  |  | 30.87 | 56.67 | 18.99 | 76.92 | most effective repression of PCSK9 secretion | 66.79 | 
3 | GAAUUCUAUGGUAGGCACAA (listed as RNA, chemistry not given here) [spacer 6.134, Promoter] |  |  |  |  | 57.45 | 19.37 | 43.79 | 46.77 |  | 33.07 | 
4 | TG-06-349 (guide CUGUGCCUGGUGCAGUUCCC; listed as RNA, chemistry not given here) |  |  |  |  | 87.55 | 22.89 | 91.34 | 11.02 |  | 16.95 | 
5 | TG-06-350 (guide GUGUCAUAAAGAAAUUGCCU; listed as RNA, chemistry not given here) |  |  |  |  | 67.87 | 4.74 | 71.25 | 13.4 |  | 9.07 | 
6 | TG-06-348 (guide AGGCAUUCACUCCUUCACCC; listed as RNA, chemistry not given here) |  |  |  |  | 35.55 | 50.1 | 23.14 | 71.88 |  | 60.99 | 
7 | TG-06-345 (guide GCCUCGCCGCGGCACAGGUG; listed as RNA, chemistry not given here) |  |  |  |  | 85.68 | 20.26 | 81.22 | 1.28 |  | 9.49 | 
8 | GAAUCAAUCCUACUGUGGAC (listed as RNA, chemistry not given here) [spacer 6.143, Promoter] |  |  |  |  | 22.33 | 68.66 | 38.69 | 52.97 |  | 60.81 | 
9 | UUCCACUGGCCUUAACCUGG (listed as RNA, chemistry not given here) [spacer 6.142, Promoter] |  |  |  |  | 27.27 | 61.73 | 30.87 | 62.48 |  | 62.1 | 
10 | TG-06-002 (guide ACCGCUGCGCCAAGGUGCGG; listed as RNA, chemistry not given here) |  |  |  |  | 83.15 | 16.71 | 81.95 | 0.4 |  | 8.16 | 
11 | GCUCCUGCACAGUCCUCCCC (listed as RNA, chemistry not given here) [spacer 6.161, Exon 1] |  |  |  |  | 53.16 | 25.38 | 29.55 | 64.08 |  | 44.73 | 
12 | CAGUACGUUCCAGGCAUUCA (listed as RNA, chemistry not given here) [spacer 6.171, Intron 1] |  |  |  |  | 55.95 | 21.46 | 52.41 | 36.3 |  | 28.88 | 
13 | TG-06-346 (guide CCCACCUGUGCCGCGGCGAG; listed as RNA, chemistry not given here) |  |  |  |  | 81.63 | 14.58 | 77.02 | 6.39 |  | 4.09 | 
14 | ACUUUGUUUGCAAAGACCUC (listed as RNA, chemistry not given here) [spacer 6.117, Promoter] |  |  |  |  | 98.05 | 37.62 | 68.98 | 16.16 |  | 10.73 | 
15 | GGAAAGCUGAGCUUGUGCCU (listed as RNA, chemistry not given here) [spacer 6.135, Promoter] |  |  |  |  | 44.59 | 37.42 | 25.66 | 68.82 |  | 53.12 | 
16 | GAAGUCUCACUGGUCAGCAG (listed as RNA, chemistry not given here) [spacer 6.146, Promoter] |  |  |  |  | 20.34 | 71.45 | 40.84 | 50.36 |  | 60.9 | 
17 | ACUGGCCUUAACCUGGCAGC (listed as RNA, chemistry not given here) [spacer 6.141, Promoter] |  |  |  |  | 12.58 | 82.34 | 13.86 | 83.16 |  | 82.75 | 82.75
18 | CCUUUGUUUCUUCCCAGUAU (listed as RNA, chemistry not given here) [spacer 6.122, Promoter] |  |  |  |  | 86.06 | 20.79 | 79.36 | 3.54 |  | 8.63 | 
